According to the NIST ThermoML archive (doi:10.1021/je400178k):
± gives the expanded uncertainty stated by the source.

Assay: molar heat capacity at constant pressure; xn = mol fraction of the nth substance listed
Conditions: 101 kPa, Liquid, Small sample (50 mg) DSC

OCCN1CCNCC1 [N-(2-hydroxyethyl)piperazine] + O
molar heat capacity at constant pressure (298.15 K, x1 = 0.0999): 104.2 ± 2.5 J/K/mol | molar heat capacity at constant pressure (298.15 K, x1 = 0.2): 126.9 ± 2.7 J/K/mol | molar heat capacity at constant pressure (298.15 K, x1 = 0.2921): 145.8 ± 2.9 J/K/mol | molar heat capacity at constant pressure (298.15 K, x1 = 0.3916): 165.4 ± 3.1 J/K/mol | molar heat capacity at constant pressure (298.15 K, x1 = 0.4896): 184.7 ± 3.3 J/K/mol | molar heat capacity at constant pressure (298.15 K, x1 = 0.6011): 206.4 ± 3.5 J/K/mol | molar heat capacity at constant pressure (298.15 K, x1 = 0.6947): 224.8 ± 3.8 J/K/mol | molar heat capacity at constant pressure (298.15 K, x1 = 0.7952): 244.6 ± 4 J/K/mol | molar heat capacity at constant pressure (298.15 K, x1 = 0.8939): 264.2 ± 4.2 J/K/mol | molar heat capacity at constant pressure (298.15 K, x1 = 1): 285 ± 4.5 J/K/mol | molar heat capacity at constant pressure (303.15 K, x1 = 0.0999): 105.7 ± 2.5 J/K/mol | molar heat capacity at constant pressure (303.15 K, x1 = 0.2): 129.2 ± 2.7 J/K/mol | molar heat capacity at constant pressure (303.15 K, x1 = 0.2921): 149.2 ± 2.9 J/K/mol | molar heat capacity at constant pressure (303.15 K, x1 = 0.3916): 169.1 ± 3.1 J/K/mol | molar heat capacity at constant pressure (303.15 K, x1 = 0.4896): 188.3 ± 3.3 J/K/mol | molar heat capacity at constant pressure (303.15 K, x1 = 0.6011): 210.1 ± 3.6 J/K/mol | molar heat capacity at constant pressure (303.15 K, x1 = 0.6947): 228.7 ± 3.8 J/K/mol | molar heat capacity at constant pressure (303.15 K, x1 = 0.7952): 248.9 ± 4 J/K/mol | molar heat capacity at constant pressure (303.15 K, x1 = 0.8939): 268.8 ± 4.3 J/K/mol | molar heat capacity at constant pressure (303.15 K, x1 = 1): 289.9 ± 4.6 J/K/mol | molar heat capacity at constant pressure (308.15 K, x1 = 0.0999): 107.1 ± 2.5 J/K/mol | molar heat capacity at constant pressure (308.15 K, x1 = 0.2): 131.5 ± 2.7 J/K/mol | molar heat capacity at constant pressure (308.15 K, x1 = 0.2921): 151.9 ± 2.9 J/K/mol | molar heat capacity at constant pressure (308.15 K, x1 = 0.3916): 171.5 ± 3.1 J/K/mol | molar heat capacity at constant pressure (308.15 K, x1 = 0.4896): 191 ± 3.4 J/K/mol | molar heat capacity at constant pressure (308.15 K, x1 = 0.6011): 212.7 ± 3.6 J/K/mol | molar heat capacity at constant pressure (308.15 K, x1 = 0.6947): 231.4 ± 3.8 J/K/mol | molar heat capacity at constant pressure (308.15 K, x1 = 0.7952): 251.8 ± 4.1 J/K/mol | molar heat capacity at constant pressure (308.15 K, x1 = 0.8939): 271.6 ± 4.3 J/K/mol | molar heat capacity at constant pressure (308.15 K, x1 = 1): 292.9 ± 4.6 J/K/mol | molar heat capacity at constant pressure (313.15 K, x1 = 0.0999): 108.6 ± 2.5 J/K/mol | molar heat capacity at constant pressure (313.15 K, x1 = 0.2): 133.9 ± 2.8 J/K/mol | molar heat capacity at constant pressure (313.15 K, x1 = 0.2921): 154.8 ± 3 J/K/mol | molar heat capacity at constant pressure (313.15 K, x1 = 0.3916): 174.4 ± 3.2 J/K/mol | molar heat capacity at constant pressure (313.15 K, x1 = 0.4896): 194.1 ± 3.4 J/K/mol | molar heat capacity at constant pressure (313.15 K, x1 = 0.6011): 215.8 ± 3.6 J/K/mol | molar heat capacity at constant pressure (313.15 K, x1 = 0.6947): 234.5 ± 3.9 J/K/mol | molar heat capacity at constant pressure (313.15 K, x1 = 0.7952): 254.5 ± 4.1 J/K/mol | molar heat capacity at constant pressure (313.15 K, x1 = 0.8939): 274.4 ± 4.4 J/K/mol | molar heat capacity at constant pressure (313.15 K, x1 = 1): 296 ± 4.6 J/K/mol | molar heat capacity at constant pressure (318.15 K, x1 = 0.0999): 110.4 ± 2.5 J/K/mol | molar heat capacity at constant pressure (318.15 K, x1 = 0.2): 136.1 ± 2.8 J/K/mol | molar heat capacity at constant pressure (318.15 K, x1 = 0.2921): 157.5 ± 3 J/K/mol | molar heat capacity at constant pressure (318.15 K, x1 = 0.3916): 177.5 ± 3.2 J/K/mol | molar heat capacity at constant pressure (318.15 K, x1 = 0.4896): 196.8 ± 3.4 J/K/mol | molar heat capacity at constant pressure (318.15 K, x1 = 0.6011): 218.2 ± 3.7 J/K/mol | molar heat capacity at constant pressure (318.15 K, x1 = 0.6947): 237.1 ± 3.9 J/K/mol | molar heat capacity at constant pressure (318.15 K, x1 = 0.7952): 257.2 ± 4.2 J/K/mol | molar heat capacity at constant pressure (318.15 K, x1 = 0.8939): 277.2 ± 4.4 J/K/mol | molar heat capacity at constant pressure (318.15 K, x1 = 1): 298.9 ± 4.7 J/K/mol | molar heat capacity at constant pressure (323.15 K, x1 = 0.0999): 112.2 ± 2.6 J/K/mol | molar heat capacity at constant pressure (323.15 K, x1 = 0.2): 139 ± 2.8 J/K/mol | molar heat capacity at constant pressure (323.15 K, x1 = 0.2921): 160.7 ± 3 J/K/mol | molar heat capacity at constant pressure (323.15 K, x1 = 0.3916): 179.9 ± 3.2 J/K/mol | molar heat capacity at constant pressure (323.15 K, x1 = 0.4896): 199.4 ± 3.5 J/K/mol | molar heat capacity at constant pressure (323.15 K, x1 = 0.6011): 220.7 ± 3.7 J/K/mol | molar heat capacity at constant pressure (323.15 K, x1 = 0.6947): 239.6 ± 3.9 J/K/mol | molar heat capacity at constant pressure (323.15 K, x1 = 0.7952): 259.8 ± 4.2 J/K/mol | molar heat capacity at constant pressure (323.15 K, x1 = 0.8939): 279.8 ± 4.4 J/K/mol | molar heat capacity at constant pressure (323.15 K, x1 = 1): 301.7 ± 4.7 J/K/mol | molar heat capacity at constant pressure (328.15 K, x1 = 0.0999): 114.3 ± 2.6 J/K/mol | molar heat capacity at constant pressure (328.15 K, x1 = 0.2): 142.3 ± 2.8 J/K/mol | molar heat capacity at constant pressure (328.15 K, x1 = 0.2921): 164.2 ± 3.1 J/K/mol | molar heat capacity at constant pressure (328.15 K, x1 = 0.3916): 182.4 ± 3.3 J/K/mol | molar heat capacity at constant pressure (328.15 K, x1 = 0.4896): 202 ± 3.5 J/K/mol | molar heat capacity at constant pressure (328.15 K, x1 = 0.6011): 223.7 ± 3.7 J/K/mol | molar heat capacity at constant pressure (328.15 K, x1 = 0.6947): 242.6 ± 4 J/K/mol | molar heat capacity at constant pressure (328.15 K, x1 = 0.7952): 262.7 ± 4.2 J/K/mol | molar heat capacity at constant pressure (328.15 K, x1 = 0.8939): 282.8 ± 4.5 J/K/mol | molar heat capacity at constant pressure (328.15 K, x1 = 1): 305 ± 4.8 J/K/mol | molar heat capacity at constant pressure (333.15 K, x1 = 0.0999): 115.7 ± 2.6 J/K/mol | molar heat capacity at constant pressure (333.15 K, x1 = 0.2): 144.9 ± 2.9 J/K/mol | molar heat capacity at constant pressure (333.15 K, x1 = 0.2921): 167.3 ± 3.1 J/K/mol | molar heat capacity at constant pressure (333.15 K, x1 = 0.3916): 185.7 ± 3.3 J/K/mol | molar heat capacity at constant pressure (333.15 K, x1 = 0.4896): 204.7 ± 3.5 J/K/mol | molar heat capacity at constant pressure (333.15 K, x1 = 0.6011): 226.3 ± 3.8 J/K/mol | molar heat capacity at constant pressure (333.15 K, x1 = 0.6947): 245.3 ± 4 J/K/mol | molar heat capacity at constant pressure (333.15 K, x1 = 0.7952): 265.5 ± 4.3 J/K/mol | molar heat capacity at constant pressure (333.15 K, x1 = 0.8939): 285.7 ± 4.5 J/K/mol | molar heat capacity at constant pressure (333.15 K, x1 = 1): 308.1 ± 4.8 J/K/mol | molar heat capacity at constant pressure (338.15 K, x1 = 0.0999): 118.5 ± 2.6 J/K/mol | molar heat capacity at constant pressure (338.15 K, x1 = 0.2): 148 ± 2.9 J/K/mol | molar heat capacity at constant pressure (338.15 K, x1 = 0.2921): 170.6 ± 3.1 J/K/mol | molar heat capacity at constant pressure (338.15 K, x1 = 0.3916): 188.1 ± 3.3 J/K/mol | molar heat capacity at constant pressure (338.15 K, x1 = 0.4896): 207.5 ± 3.6 J/K/mol | molar heat capacity at constant pressure (338.15 K, x1 = 0.6011): 229.1 ± 3.8 J/K/mol | molar heat capacity at constant pressure (338.15 K, x1 = 0.6947): 248.2 ± 4 J/K/mol | molar heat capacity at constant pressure (338.15 K, x1 = 0.7952): 268.2 ± 4.3 J/K/mol | molar heat capacity at constant pressure (338.15 K, x1 = 0.8939): 288.4 ± 4.5 J/K/mol | molar heat capacity at constant pressure (338.15 K, x1 = 1): 311 ± 4.8 J/K/mol | molar heat capacity at constant pressure (343.15 K, x1 = 0.0999): 120.8 ± 2.6 J/K/mol | molar heat capacity at constant pressure (343.15 K, x1 = 0.2): 150.6 ± 2.9 J/K/mol | molar heat capacity at constant pressure (343.15 K, x1 = 0.2921): 173.3 ± 3.2 J/K/mol | molar heat capacity at constant pressure (343.15 K, x1 = 0.3916): 190.9 ± 3.4 J/K/mol | molar heat capacity at constant pressure (343.15 K, x1 = 0.4896): 210.1 ± 3.6 J/K/mol | molar heat capacity at constant pressure (343.15 K, x1 = 0.6011): 232 ± 3.8 J/K/mol | molar heat capacity at constant pressure (343.15 K, x1 = 0.6947): 250.8 ± 4.1 J/K/mol | molar heat capacity at constant pressure (343.15 K, x1 = 0.7952): 270.8 ± 4.3 J/K/mol | molar heat capacity at constant pressure (343.15 K, x1 = 0.8939): 291.1 ± 4.6 J/K/mol | molar heat capacity at constant pressure (343.15 K, x1 = 1): 313.9 ± 4.9 J/K/mol | molar heat capacity at constant pressure (348.15 K, x1 = 0.0999): 122.5 ± 2.6 J/K/mol | molar heat capacity at constant pressure (348.15 K, x1 = 0.2): 153 ± 2.9 J/K/mol | molar heat capacity at constant pressure (348.15 K, x1 = 0.2921): 175.6 ± 3.2 J/K/mol | molar heat capacity at constant pressure (348.15 K, x1 = 0.3916): 194 ± 3.4 J/K/mol | molar heat capacity at constant pressure (348.15 K, x1 = 0.4896): 212.8 ± 3.6 J/K/mol | molar heat capacity at constant pressure (348.15 K, x1 = 0.6011): 234.8 ± 3.9 J/K/mol | molar heat capacity at constant pressure (348.15 K, x1 = 0.6947): 253.5 ± 4.1 J/K/mol | molar heat capacity at constant pressure (348.15 K, x1 = 0.7952): 273.3 ± 4.4 J/K/mol | molar heat capacity at constant pressure (348.15 K, x1 = 0.8939): 293.6 ± 4.6 J/K/mol | molar heat capacity at constant pressure (348.15 K, x1 = 1): 316.5 ± 4.9 J/K/mol | molar heat capacity at constant pressure (353.15 K, x1 = 0.0999): 124 ± 2.7 J/K/mol | molar heat capacity at constant pressure (353.15 K, x1 = 0.2): 155.5 ± 3 J/K/mol | molar heat capacity at constant pressure (353.15 K, x1 = 0.2921): 177.9 ± 3.2 J/K/mol | molar heat capacity at constant pressure (353.15 K, x1 = 0.3916): 197.6 ± 3.4 J/K/mol | molar heat capacity at constant pressure (353.15 K, x1 = 0.4896): 215.5 ± 3.6 J/K/mol | molar heat capacity at constant pressure (353.15 K, x1 = 0.6011): 237.5 ± 3.9 J/K/mol | molar heat capacity at constant pressure (353.15 K, x1 = 0.6947): 256.1 ± 4.1 J/K/mol | molar heat capacity at constant pressure (353.15 K, x1 = 0.7952): 275.8 ± 4.4 J/K/mol | molar heat capacity at constant pressure (353.15 K, x1 = 0.8939): 296.1 ± 4.6 J/K/mol | molar heat capacity at constant pressure (353.15 K, x1 = 1): 319 ± 4.9 J/K/mol
